Results as given in patent publication US8110654B2, “T cell epitope peptides of ovarian cancer anti-idiotypic antibody 6B11 and use thereof” (Peking University People;s Hospital, priority 2006, dated 2012).

Tests used:
[1] = molecular target: HLA-A2 (Homo sapiens, UniProt P04439, D140Y/D185E/D98H/E176V/E277Q/G131W/G231S/I119V/I121R/I166T/I218V/L300P/L318F/N151K/N90K/P208A/P217A/Q86G/Q94H/R138H/R169H/T345S); assay: T2 cell binding assay (HLA class I expression on T2 cells, confocal microscopy); assay type: cell-based; conditions: for binding capacity in T2 cell binding assay (in words): T2 cells co-incubated with peptide 24 hours; for T2 binding: T2 cells co-incubated with peptide (0.3, 3, 30 μg/ml) 24 hours, HLA class I surface expression; as to T2 binding: key: +++: high binding capacity; ++: moderate binding capacity; +: low binding capacity
Experimental: The peptides obtained by […] method and the VH CDR1 and VL CDR2 region peptides were subject to T2 cell binding assay. T2 cells were co-incubated with each peptides in different concentrations (0.3 μg/ml, 3 μg/ml and 30 μg/ml) for 24 hours and then co-incubated with anti-human MHC class I antibodies. The expression profile of HLA class I molecules on the surface of T2 cells was analyzed by confocal microscopy. […] They were synthesized together with the CDR peptides of the anti-idiotype antibody for screening CTL epitope peptides.

[2] = test system: CD4 T cells; assay: BrdU cell proliferation assay after magnetic bead sorting of CD4 T cells; assay type: cell-based, human; conditions: reacting cells sorted for CD4 T cells by magnetic beads
Experimental: All the CDR peptides of anti-idiotype antibody 6B11 (6 peptides) were synthesized artificially. The peptides were screened for Th epitope peptides by cell proliferation assay. Anti-idiotype antibody 6B11-CTLs stimulated for one period were used as reacting cells. DCs loaded with anti-idiotype antibodies and peptides respectively were used as stimulating cells. The reacting cells and the stimulating cells (in the ratio of 10:1) were co-incubated at 37° C. under 5% CO2 for 120 hours and then subject to BrdU ELISA cell proliferation assay. Each well contained 100 μl AIM-V culture medium and 1×10^5 anti-idiotype antibody 6B11-CTLs. Within the last 2 hours during stimulation, 10 μl BrdU labeling solution was added into each well and the fluid in the wells was removed. The cells were dried at 60° C. for 1 hour. 200 μl of FixDenat solution was added into each well. The reaction continued for 30 minutes at 37° C. for fixing DNA in the lymphocytes. Finally, 100 μl BrdU monoclonal antibody was added into each well for 90 minutes. The absorption value at 450 nm was read by an automatic microplate reader after substrate chromogenic reaction for detecting the proliferation of the cells. The group of DCs without loading and the group of phytohaemagglutinin (PHA) were used as negative and positive control respectively. […] Other peptides could not stimulate the proliferation of the reacting cells.
For further analyzing the proliferation of the cells, stimulating cells were blocked by anti-human MHC class II antibodies, for evaluating the effect of Th epitope peptides. Firstly, the optimal application concentration of MHC class II antibodies was determined by experiments to be 1:20 dilution (FIG. 3). […] Other peptides could not trigger cell proliferation, no matter whether MHC class II antibodies were applied or not (FIG. 4). […] The reacting cells were subject to magnetic bead sorting of CD4 T cells.

[3] = test system: anti-idiotype antibody 6B11-CTLs (reacting cells); assay: BrdU ELISA cell proliferation assay, 6B11-CTLs stimulated by loaded DCs; assay type: cell-based, human
Experimental: Peripheral blood was drawn from HLA-A2 healthy human subjects. After EDTA anti-coagulation treatment, peripheral blood monocytes were isolated using Ficoll lymphocyte isolation 1×10^7 monocytes/well and AIM-V culture medium (containing 5% human AB serum) was added to 1 ml. The cells were incubated at 37° C. under 5% CO2 for 2 hours. Non-adherent cells were drawn and removed as lymphocytes and stored in liquid nitrogen for further use. The adherent cells were monocytes.
The monocytes isolated from said 6-well plates were added with 2 ml AIM-V culture medium (containing 5% human AB serum)/well. Recombinant human granulocyte-macrophage colony-stimulating factor (rh GM-CSF) and recombinant human interleukin-4 (rh IL-4) were added simultaneously both to a final concentration of 1000 U/ml, for induced incubation. On Day 4, 1 ml AIM-V culture medium (containing 5% human AB serum) was supplemented, and rh GM-CSF and rh IL-4 of the same concentration as mentioned above were also supplemented. On Day 6, 1 ml AIM-V culture medium (containing 5% human AB serum) was supplemented again. At the same time, recombinant human tumor necrosis factor-α (rh TNF-α), recombinant human α-interferon (rh IFN-α) and recombinant human interleukin-6 (rh IL-6) were added, all to a final concentration of 1000 U/ml, and prostaglandin E2 (PGE2) was added to a final concentration of 1 μg/ml. Co-incubation lasted 24 hours for inducing mature DCs.
On Day 4 during incubation of DCs, the culture medium, rh GM-CSF and rh IL-4 were supplemented. At the same time, anti-idiotype antibody 6B11 was added to a final concentration of 40 μg/ml for loading. The loaded cells were stored as stimulating cells for further use.
Mature DCs induced were harvested, washed and adjusted to a concentration of 1×10^6 cells/ml. Six CDR peptides (SEQ ID NOs: 1-6, see Table 1, artificially synthesized) in a final concentration of 30 μg/ml respectively, or each peptide of 30 μg/ml together with keyhole limpet hemocyanin (KLH) of 5 μg/ml were added for loading. The loaded cells were stored as stimulating cells for further use.
The freeze-stored autologous lymphocytes were stimulated by DCs loaded with anti-idiotype antibody 6B11 (anti-Id DCs), to obtain CTLs specific to anti-idiotype antibody 6B11 (6B11-CTLs). One period consists of 7 days. On Day 3 of every period, 10 U/ml recombinant human interleukin-2 (rh IL-2) was supplemented. Finally, anti-idiotype antibody 6B11-CTLs were obtained after a one- or three-period stimulation.
All the CDR peptides of anti-idiotype antibody 6B11 (6 peptides) were synthesized artificially. The peptides were screened for Th epitope peptides by cell proliferation assay. Anti-idiotype antibody 6B11-CTLs stimulated for one period were used as reacting cells. DCs loaded with anti-idiotype antibodies and peptides respectively were used as stimulating cells. The reacting cells and the stimulating cells (in the ratio of 10:1) were co-incubated at 37° C. under 5% CO2 for 120 hours and then subject to BrdU ELISA cell proliferation assay. Each well contained 100 μl AIM-V culture medium and 1×10^5 anti-idiotype antibody 6B11-CTLs. Within the last 2 hours during stimulation, 10 μl BrdU labeling solution was added into each well and the fluid in the wells was removed. The cells were dried at 60° C. for 1 hour. 200 μl of FixDenat solution was added into each well. The reaction continued for 30 minutes at 37° C. for fixing DNA in the lymphocytes. Finally, 100 μl BrdU monoclonal antibody was added into each well for 90 minutes. The absorption value at 450 nm was read by an automatic microplate reader after substrate chromogenic reaction for detecting the proliferation of the cells. The group of DCs without loading and the group of phytohaemagglutinin (PHA) were used as negative and positive control respectively. […] Other peptides could not stimulate the proliferation of the reacting cells. […]

Substance | binding capacity in T2 cell binding assay (in words) [1] | T2 binding [1] | proliferation of sorted CD4 T cells [2] | proliferation after blocking by MHC class II antibodies ([3]; anti-human MHC class II antibodies 1:20 dilution) | proliferation of reacting cells 6B11-CTLs ([3]; stimulating DCs loaded with peptide 30 μg/ml or 6B11 40 μg/ml, 120 hours, BrdU, A450)
VHSNGNTYL [predicted 9-mer from VL CDR1] | low binding capacity | + |  |  | 
phytohaemagglutinin [PHA, reference compound] |  |  | could trigger the proliferation | blocked dramatically | significant proliferation
LITTKIAWY [predicted 9-mer from VH CDR3] | low binding capacity | + |  |  | 

More lines, main results first:

binding capacity in T2 cell binding assay (in words) [1] | T2 binding [1] | Substance | proliferation of sorted CD4 T cells [2] | proliferation after blocking by MHC class II antibodies ([3]; anti-human MHC class II antibodies 1:20 dilution) | proliferation of reacting cells 6B11-CTLs ([3]; stimulating DCs loaded with peptide 30 μg/ml or 6B11 40 μg/ml, 120 hours, BrdU, A450)
high binding capacity | +++ | NNKYYNTAL [predicted 9-mer from VH CDR2] |  |  | 
low binding capacity | + | IALITTKIA [predicted 9-mer from VH CDR3] |  |  | 
